Test results: patent publication US20260207519A1, “ISOLATED TARGETED DELIVERY SYSTEM FOR THE TREATMENT OF OVARIAN CANCER” (CELLIS SP. Z O.O. [LTD.], priority 2022, published 2026)

System: A2780_luc tumors
Test: 3rd in vivo study: A2780_luc orthotopic xenograft model
Parameters: species or system female Balb/c nude mice
Details: vehicle 13 days; Kaplan-Meier, log-rank test
Description: FIG. 14: The Kaplan-Meier survival curve of female nude mice implanted […] with A2780_luc tumors. N=8 for both groups initially. Statistical analysis was carried out using log-rank (Mantel-Cox) test.
All in vivo studies were performed using female Balb/c nude mice at age 5-8 weeks. Animals were imaged using an In Vivo Imaging System (IVIS, Newton 7.0, Vilber).
A2780_luc or A2780-cis_luc cells were orthotopically implanted into both ovaries of mice. 5 days after implant mice were imaged using IVIS and those with most similar bioluminescent intensity values were assigned to the following treatment groups: […]

For `N.N.[Cl][Pt][Cl]` [cisplatin, Cisplatin], which median survival is on record?
The median survival was 14.5 days.
